# In US20200046856A1, “METHODS FOR IDENTIFYING MBLAC1-DEPENDENT MOLECULAR NETWORKS” (Florida Atlantic University Board of Trustees, priority 2018, published 2020):
# “Also recorded” adds a separate entry of the source.
# Legend:
# human MBLAC1 = target: T1, human MBLAC1 (Homo sapiens, UniProt A4D2B0); experiment: Backscattering Interferometry (BSI) binding assay, lysates of T-REx cells expressing human MBLAC1; settings: TET induced vs non-induced T-REx lysates, 5 μM and 50 μM
# T1 construct: expressed in transfected cells; host or cells: HEK Flp-In T-REx-293 cells, pcDNA5/FRT/TO, TET-induced, lysate
# T1 sequence (A4D2B0 1-266): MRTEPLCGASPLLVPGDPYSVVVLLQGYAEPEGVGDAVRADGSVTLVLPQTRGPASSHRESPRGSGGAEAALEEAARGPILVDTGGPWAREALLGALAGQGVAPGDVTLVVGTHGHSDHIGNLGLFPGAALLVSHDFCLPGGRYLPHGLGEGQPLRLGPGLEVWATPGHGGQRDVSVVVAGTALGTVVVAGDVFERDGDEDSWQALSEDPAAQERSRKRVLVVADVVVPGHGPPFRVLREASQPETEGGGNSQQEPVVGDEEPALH
# From the text: Although the pulldown approach provided initial evidence of Cef interactions with MBLAC1, the efficiency of competition was lower than expected, based on prior studies reporting the in vitro potency of Cef for GLT-1 induction. It was reasoned that steric hindrance could limit high-affinity interactions of MBLAC1 with Cef-conjugated beads. As radiolabeled Cef was unavailable, a non-isotopic approach that could examine Cef/MBLAC1 interactions without ligand immobilization was sought. […]
# To assess the binding of unlabeled Cef with MBLAC1 in cell and tissue lysates, BSI was utilized. […] RI changes are quantified by comparing fringe shifts between test and reference samples.
# Lysates for BSI contained Cef at concentrations of 0 μM, 5 μM, and 50 μM and concentrations of either 300 μg/mL (mouse cell lysates) or 100 μg/mL (human cell lysates and mouse brain lysates) protein. […] To obtain BSI signals, the sample with 0 μM Cef was injected into the channel in a stop-flow manner using a vacuum and allowed to reach temperature and pressure equilibrium (˜10 sec) at which point the phase value (BSI signal) was measured for 20 sec. Specific BSI signal was determined by subtracting Cef only signal from Cef-lysate signals. […]
# mouse MBLAC1 = target: T2, mouse MBLAC1 (Mus musculus, UniProt Q8BWY4); experiment: Backscattering Interferometry (BSI) binding assay, lysates of T-REx cells expressing mouse MBLAC1; settings: for BSI binding signal: TET induced vs non-induced T-REx lysates, mouse MBLAC1, 5 μM and 50 μM
# T2 construct: expressed in transfected cells; host or cells: HEK Flp-In T-REx-293 cells, pcDNA5/FRT/TO, TET-induced, lysate
# T2 sequence (Q8BWY4 1-260): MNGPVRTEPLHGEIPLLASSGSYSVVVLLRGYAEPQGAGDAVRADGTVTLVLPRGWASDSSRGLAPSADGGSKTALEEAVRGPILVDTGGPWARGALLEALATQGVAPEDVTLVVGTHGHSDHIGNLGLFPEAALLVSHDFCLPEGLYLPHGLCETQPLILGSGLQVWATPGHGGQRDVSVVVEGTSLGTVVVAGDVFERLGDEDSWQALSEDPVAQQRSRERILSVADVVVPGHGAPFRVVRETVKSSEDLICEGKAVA
# From the text: Although the pulldown approach provided initial evidence of Cef interactions with MBLAC1, the efficiency of competition was lower than expected, based on prior studies reporting the in vitro potency of Cef for GLT-1 induction. It was reasoned that steric hindrance could limit high-affinity interactions of MBLAC1 with Cef-conjugated beads. As radiolabeled Cef was unavailable, a non-isotopic approach that could examine Cef/MBLAC1 interactions without ligand immobilization was sought. Backscattering interferometry is a sensitive approach that can detect both kinetic and equilibrium associations of unlabeled, small molecule interactions with unmodified target proteins (Bornhop et al., Science vol. 317, 1732-1736, 2007). […] BSI signals were eliminated by heat denaturation of extracts prior to analysis, consistent with Cef binding as arising from a proteinaceous species versus TET used to induce MBLAC1 expression.
# To assess the binding of unlabeled Cef with MBLAC1 in cell and tissue lysates, BSI was utilized. A BSI instrument was assembled and employed (Kussrow et al., Anal Chem 84, 779-792, 2012). Briefly, BSI, using a semi-circular chip, a helium-neon laser, and CCD camera, allows for high-sensitivity, refractive index (RI) sensing. The RI signal is obtained by isolating shifts in the backscattered fringes by Fourier analysis. RI changes are quantified by comparing fringe shifts between test and reference samples.
# Lysates for BSI contained Cef at concentrations of 0 μM, 5 μM, and 50 μM and concentrations of either 300 μg/mL (mouse cell lysates) or 100 μg/mL (human cell lysates and mouse brain lysates) protein. Samples were incubated on ice for 1 hr prior to analysis to favor equilibrium binding conditions. To obtain BSI signals, the sample with 0 μM Cef was injected into the channel in a stop-flow manner using a vacuum and allowed to reach temperature and pressure equilibrium (˜10 sec) at which point the phase value (BSI signal) was measured for 20 sec. Specific BSI signal was determined by subtracting Cef only signal from Cef-lysate signals. […]
# MBLAC1 [1] = experiment: Affinity capture of MBLAC1 with Cef-conjugated Sepharose beads, free Cef competition; settings: 50 μM free Cef preincubated with MBLAC1 containing extract; n=6
# [2] = system: MBLAC1 WT and MBLAC1 KO mice; experiment: Effect of repeated Cef on cocaine-induced locomotion (open field); format: in vivo, mouse; settings: 200 mg/kg IP once daily for 10 days, cocaine 10 mg/kg 24 h later, first 30 min
# Description: Animals: All mice were used in accordance with protocols approved by the Florida Atlantic University Institutional Animal Care and Use Committee. Mice were group-housed on a 12 h/12 h light/dark cycle and given ad libitum access to food and water. Breeding was accomplished with mating of heterozygous males with heterozygous females. Male and female mice 11-13 weeks old at the start of the experiment were used in testing the effects of repeated ceftriaxone on response to cocaine in the open field assay. Data from males and females were combined.
# Repeated ceftriaxone treatment/acute cocaine administration: MBLAC1 wild-type (WT, MBLAC1^+/+) and knockout mice (MBLAC1^−/−) were used in this experiment. Mice were injected IP once daily for 10 days with 200 mg/kg ceftriaxone (CEF) or saline. Twenty-four hours following the last CEF injection, mice were injected with 10 mg/kg cocaine or saline followed immediately by testing in open field activity chambers (Med Associates, Fairfax, Vt.) for 60 minutes. Locomotor activity was evaluated by photocells in the X, Y and Z dimensions. Horizontal beam breaks, vertical beam breaks, and repetitive movements were recorded and measures, including distance traveled, vertical rearing and stereotypic counts, were calculated. Data were analyzed in 5 min time bins within session, and for the first 30 min following cocaine injection. Data were analyzed by two-way ANOVA repeated measures, with time bin as the repeated measure, or by two-way ANOVA for 30 min cumulated data. At the end of behavior, mice were euthanized by CO2.
# The methods were performed essentially as described in Tallarida et al. Neurosci Lett vol. 556, p. 155-159, 2013.
# MBLAC1 [3] = target: T3, MBLAC1 (Mus musculus, UniProt Q8BWY4); experiment: BSI binding assay, mouse frontal cortex lysates with and without MBLAC1 immunodepletion
# T3 construct: from tissue; host or cells: frontal cortex of wild type C57BL/6J mice, 100,000 x g supernatant
# T3 sequence (Q8BWY4 1-260): T2 sequence (Q8BWY4 1-260)
# Description: To detect endogenous Cef binding and to determine whether MBLAC1 is likely to be responsible for observed interactions, the BSI experiments were repeated using mouse frontal cortex lysates, with and without prior heat denaturation. To determine whether, and to what degree, Cef binding signals derive from MBLAC1, BSI studies were performed on lysates that had been immunodepleted of MBLAC1 protein by anti-MBLAC1 antibody (#80). […] These findings support the contention that, under these binding conditions, MBLAC1 is likely the primary species in brain lysates capable of interacting with Cef at high-affinity—that the well-replicated actions Cef in the CNS arise through MBLAC1 interactions.
# Wild type C57BL/6J mice (Jackson Labs, Bar Harbor, Me.) were rapidly decapitated and frontal cortex was dissected. […] Supernatants were collected, diluted with 2× lysis buffer (40 mM HEPES, 220 mM KCl, 20 mM NaCl, 4 mM MgCl, 10 mM KH2PO4, 500 μM ZnSO4) and protein concentration determined (BCA Protein Assay, ThermoFisher, Waltham, Mass.). […]
# To assess the binding of unlabeled Cef with MBLAC1 in cell and tissue lysates, BSI was utilized. […] RI changes are quantified by comparing fringe shifts between test and reference samples. […]
"Kd (mouse MBLAC1; lysate from mouse MBLAC1 expressing cells, Cef 0.78 μM to 50 μM, r2=0.96, read-out: KD for binding (single site binding equation fit to BSI data))",Mean reduction in MBLAC1 binding to immobilized Cef (MBLAC1 [1]),"BSI binding signal in mouse frontal cortex lysate (MBLAC1 [3]; non-depleted lysate, 5 μM and 50 μM)",SMILES,BSI binding signal (human MBLAC1),BSI binding signal (mouse MBLAC1),Effect of Cef pretreatment on cocaine-induced locomotion in MBLAC1 KO mice [2],Effect of Cef pretreatment on cocaine-induced locomotion in MBLAC1 WT mice [2],Effect of Cef pretreatment on cocaine-induced locomotion in MBLAC1 KO mice ([2]; listed as CEF),Effect of Cef pretreatment on cocaine-induced locomotion in MBLAC1 WT mice ([2]; listed as CEF),BSI binding signal in MBLAC1-immunodepleted mouse frontal cortex lysate (MBLAC1 [3]; immunodepleted with MBLAC1 antibody #80)
2200 nM,52.4±9.3%,shows binding signal with Cef,"CO/N=C(\C(=O)N[C@@H]1C(=O)N2C(C(=O)O)=C(CSc3nc(=O)c(=O)[nH]n3C)CS[C@H]12)c1csc(N)n1 [Cef, ceftriaxone]","significant, dose-dependent BSI signals were detected only in induced cell lysates; also recorded: concentration-dependent, heat-sensitive BSI binding signals","significant, dose-dependent BSI signals were detected only in induced cell lysates; also recorded: concentration-dependent, heat-sensitive BSI binding signals",no ability to attenuate cocaine actions,the locomotor activating effects of cocaine were lost,had no effect on the response to cocaine,completely blocked the effects of cocaine,the Cef binding signal was abolished; also recorded: eliminated Cef binding activity
,,,"CC(=O)OCC1=C(C(=O)O)N2C(=O)[C@@H](NC(=O)CCC[C@@H](N)C(=O)O)[C@H]2SC1 [CephC, cephalosporin C]",,a significant CephC BSI signal (FIG. 3D) was not seen; also recorded: non-significant reduction in BSI signal,,,,,
